How the values were obtained:
HSMM = assay: cAMP levels in human skeletal muscle myoblasts; assay type: cell-based; details: 1 mM IBMX, 30 minutes
Procedure: HSMM were obtained from Cambrex (Walkersville, Md.) and were cultured according to the suppliers instructions. […] For the cAMP measurements, cells were preincubated 12 h in Opti-MEM (Life Technologies, Cergy Pontoise, France), supplemented with 1 mM IBMX. Then medium was changed and cells were incubated for another 1 h in Opti-MEM with 1 mM IBMX, after which the medium was replaced for Opti-MEM with 1 mM IBMX and the indicated compounds. After 30 minutes the cells were lysed for cAMP analysis.

C57BL/6J mice [1] = assay: LXR agonist-induced lipogenesis in C57BL/6J mice with or without CA; assay type: in vivo, mouse
Procedure: (§1) Male C57BL/6J, KK-Ay, and ob/ob (C57BL/6J background) mice, 6-10 weeks of age, were obtained from Elevage Janvier (Le Genest St. Isle, France), CLEA Japan Inc. (Tokyo, Japan), and The Jackson Laboratory (Bar Harbor, Me., USA), respectively. All mice were maintained in a temperature-controlled (23° C.) facility with a 12-hour light/dark cycle and were given free access to food and water. The study protocols were approved by the institutional review boards. The body weight and food intake were measured every second day. The control and high-fat diet was obtained from UAR (Villemoisson sur Orge, France). […] The mice were fasted 4 hours before harvesting blood for subsequent lipid measurements, and tissues for RNA isolation, lipid measurements, and histology.
Mice were gavaged with the LXR agonist T0901317 or vehicle, and the different diets were continued for one more day, after which the mice were sacrificed.

BAT of C57BL/6J mice = assay: BAT gene expression by microarray and Q-RT-PCR; assay type: in vivo, mouse
Procedure: For microarray analysis, RNA was isolated from BAT using the RNeasy mini kit (QIAGEN, Courtaboeuf, France). Equal amounts of RNA from mice in each group were pooled (n=3 or 4 mice) and used for cDNA synthesis. After second-strand cDNA synthesis (Life Technologies, Cergy Pontoise, France), in vitro transcription was performed with biotinylated UTP and CTP (Enzo Diagnostics, Farmingdale, N.Y.). Fragmented cRNA samples were hybridized to the Affymetrix MOE430A microarray. The raw data was analyzed using the Microarray Suite Software version 5.0 (MAS5.0, Affymetrix, Santa Clara, Calif.).

C57BL/6J mice [2] = assay: Indirect calorimetry (Oxymax); assay type: in vivo, mouse
Procedure: (§2) Male C57BL/6J and KK-Ay mice, 6-7 weeks of age, were obtained from Charles River Laboratories France (l'Arbresle, France) and CLEA Japan Inc. (Tokyo, Japan), respectively. […] All mice were maintained in a temperature-controlled (23° C.) facility with a 12 h light/dark cycle and were given free access to food and water. The control and high-fat diet was obtained from UAR (Villemoison surOrge, France). […] GW4064 was suspended in peanut oil and mixed with the high fat diet at a concentration of 180 mg per kg of food. […] The mice were fasted 4 h before harvesting blood for subsequent blood measurements, and tissues for RNA isolation, lipid measurements and histology. Oxygen consumption was measured using the Oxymax apparatus (Columbus Instruments, Columbus, Ohio).

KK-Ay mice [3] = assay: Liver TG and cholesterol content and histology in KK-Ay mice; assay type: in vivo, mouse
Procedure: as §1
(§3) For measurement of liver TGs and cholesterol content, a liver was homogenized in chloroform/methanol (2:1 v/v) using a Polytron tissue grinder (Kinematica AG, Luzern, Switzerland). Lipid extracts were prepared by the classical Folch method. Extracts were dried under N2 flow and resuspended in isopropanol.

C57BL/6J mice [4] = assay: Diet-induced obesity in C57BL/6J mice; assay type: in vivo, mouse
Procedure: as §2
(§4) An OGTT was performed in animals that were fasted overnight. Glucose was administered by gavage at a dose of 2 g/kg. An IPITT was done in 4 h fasted animals. Insulin was injected at a dose of 0.75 U/kg. Glucose quantification was done with the Maxi Kit Glucometer 4 (Bayer Diagnostic, Puteaux, France) or Glucose RTU (bioMérieux Inc., Marcy l'Etoile, France). Plasma insulin concentrations were measured using ELISA (Cristal Chem Inc., Downers Grove, Ill.). Nonesterified fatty acids, triglycerides, ketone bodies, BA and total cholesterol were determined by enzymatic assays (Roche, Mannheim, Germany). cAMP was measured using the cAMP-Screen system (Applied Biosystems, Bedford, Mass.).
Pieces of mouse tissues were fixed in Bouin's solution, dehydrated in ethanol, embedded in paraffin, and cut at a thickness of 5 μm. Sections were deparaffinized, rehydrated, and stained with haematoxylin and eosin. Transmission electron microscopy was then performed.

[5] = tested on: wild-type and LXRα/β-/- mice; assay: CA diet in wild-type and LXRα/β-/- mice; assay type: in vivo, mouse; details: 0.5% CA for 3 days
Procedure: as §1
To determine whether LXR is essential for the TG-lowering effect of bile acids, we used LXRα/LXRβ double-knockout mice ([…]).

BAT = assay: cAMP levels in BAT of mice fed high fat diet with CA; assay type: in vivo, mouse; details: mice fed high fat diet with CA vs control mice
Procedure: as §4

KK-Ay mice [6] = assay: CA or GW4064 treatment of KK-Ay mice, serum lipids; assay type: in vivo, mouse; details: KK-Ay mice; for lowered circulating TG levels / total plasma cholesterol decreased: 1 week
Procedure: as §1, §3

wildtype and D2-/- mice = assay: Diet-induced obesity in D2-/- mice and littermate controls; assay type: in vivo, mouse
Procedure: as §2
Next, we used mice with a targeted disruption of the D2 gene (D2−/− mice) and littermate controls in a diet-induced obesity study for 50 days.

TGR5 = target: T1, TGR5 (Homo sapiens, UniProt Q8TDU6); assay: cAMP response element (CRE)-luciferase reporter assay with TGR5; assay type: cell-based; details: cells co-transfected with TGR5 expression plasmid and CRE-driven luciferase reporter
T1 construct: expressed in transfected cells
T1 sequence (Q8TDU6 1-330): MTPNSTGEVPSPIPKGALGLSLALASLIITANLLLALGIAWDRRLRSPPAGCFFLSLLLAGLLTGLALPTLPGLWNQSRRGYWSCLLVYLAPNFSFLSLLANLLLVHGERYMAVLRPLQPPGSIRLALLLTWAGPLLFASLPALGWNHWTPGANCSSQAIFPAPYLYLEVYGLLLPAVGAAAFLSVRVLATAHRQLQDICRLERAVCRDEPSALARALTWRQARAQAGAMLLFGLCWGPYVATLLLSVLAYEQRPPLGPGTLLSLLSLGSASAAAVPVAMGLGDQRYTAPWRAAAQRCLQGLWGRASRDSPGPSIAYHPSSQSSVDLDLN
From the text: Since a synthetic FXRα agonist was unable to phenocopy the effects of BAs on energy expenditure, we focused our attention on FXRα-independent signaling events stimulated by BAs. […] We used a cAMP response element (CRE)-luciferase reporter assay to confirm that TGR5 is a BA receptor.
We used quantitative RT-PCR to measure the expression of D2 and TGR5 mRNAs in selected mouse tissues.

[7] = CA coadministration with T0901317
[8] = high fat diet supplemented with CA, histology
[9] = CA feeding, HPLC of lipoproteins

Compound: C[C@H](CCC(=O)O)[C@H]1CC[C@H]2[C@@H]3[C@H](O)C[C@@H]4C[C@H](O)CC[C@]4(C)[C@H]3C[C@H](O)[C@]12C [CA, cholic acid]
- cAMP levels (HSMM): increased cAMP levels in a dose-dependant fashion
- SHP expression (C57BL/6J mice [1]; [7]): increased SHP expression
- SREBP-1c and its target genes (C57BL/6J mice [1]; [7]): prevented the induction
- LXR agonist induction of liver weight and serum TGs (C57BL/6J mice [1]; coadministration of 0.5% CA with T0901317): completely prevented
- expression of PGC-1α, PGC-1β, UCP-1, UCP-3, ACO, mCPT-I and D2 in BAT (BAT of C57BL/6J mice; C57BL/6J mice fed 47 days, diet mixed with CA, Q-RT-PCR): significantly increased
- genes involved in control of energy expenditure incl. D2 in BAT (microarray) (BAT of C57BL/6J mice; high fat diet mixed with CA or CDCA for 9 days): upregulated
- CO2 production and O2 consumption (C57BL/6J mice [2]; high fat diet containing CA vs high fat or normal diet): higher
- respiratory quotient (RQ=VCO2/VO2) (C57BL/6J mice [2]; high fat diet supplemented with CA): not affected
- liver TGs content (KK-Ay mice [3]; CA 3 weeks, chow or high-fat diet): significantly lower
- hepatic cholesterol (KK-Ay mice [3]; CA 3 weeks, particularly high-fat diet): increased hepatic cholesterol
- neutral lipids in liver sections (Oil Red O) (KK-Ay mice [3]; high-fat diet with CA, 3 weeks): accumulated less neutral lipids
- glucose tolerance (C57BL/6J mice [4]; C57BL/6J mice with diet-induced obesity): improves glucose tolerance
- body weight gain (C57BL/6J mice [4]; chow diet supplemented with CA): no effect
- high fat-induced changes in adipose mass and morphology (C57BL/6J mice [4]; diet supplementation with CA): completely prevented
- weight gain (C57BL/6J mice [4]; high fat diet supplemented with 0.5% CA): reduced the weight gain
- adipocyte hypertrophy in WAT and BAT (C57BL/6J mice [4]; [8]): not observed
- liver steatosis (C57BL/6J mice [4]; [8]): reversed
- 120-days of diet-induced weight gain (C57BL/6J mice [4]; obese mice switched to high fat diet containing CA): reversed
- time to return to normal body weight (C57BL/6J mice [4]; obese mice switched to high fat diet containing CA (F-FA)): ≤ 30 days
- decrease in serum TGs, SREBP-1c and ME ([5]; LXRα/β-/- mice): not observed
- SHP expression ([5]; wild-type and LXRα/β-/- animals): induced significantly
- serum TG ([5]; wild-type animals): decreased serum TG
- cAMP levels in BAT (BAT): significantly elevated
- HDL cholesterol (KK-Ay mice [6]; [9]): decreasing HDL cholesterol
- VLDL TGs (KK-Ay mice [6]; [9]): decreasing VLDL TGs
- plasma FFAs (KK-Ay mice [6]; CA feeding, particularly on high-fat diet): decreased plasma FFAs
- lowered circulating TG levels (KK-Ay mice [6]; high-fat diet with 0.5% CA): 65%
- total plasma cholesterol decreased (KK-Ay mice [6]; high-fat diet with 0.5% CA): 35%
- lowered circulating TG levels (KK-Ay mice [6]; normal-chow diet with 0.5% CA): 51%
- total plasma cholesterol decreased (KK-Ay mice [6]; normal-chow diet with 0.5% CA): 24%
- development of obesity (wildtype and D2-/- mice; D2-/- mice, CA added to high fat diet, 50 days): no effect
- diet induced obesity (wildtype and D2-/- mice; wildtype mice, CA added to high fat diet, 50 days): prevented diet induced obesity
- expression of PGC-1α in BAT (wildtype and D2-/- mice; wildtype mice, CA feeding): significantly induced
- luciferase expression (TGR5): increased luciferase expression in a dose-dependent manner

From patent publication US20080031968A1, “Methods for increasing cellular energy expenditure” (priority 2005, published 2008)
